Reference: paper PMC11671597, “The anticancer effect of metformin targets VDAC1 via ER-mitochondria interactions-mediated autophagy in HCC” (Experimental & Molecular Medicine, 2024)

Target: voltage-dependent anion channel 1 (VDAC1) (Homo sapiens, UniProt P21796)
Experiment: microscale thermophoresis (MST); supported by dose-dependent DARTS in HepG2 mitochondrial lysate (EC50 […]) and loss of protection in D9A/E203A mutants
Assay type: binding

Chain of voltage-dependent anion channel 1 (VDAC1) (P21796 2-283): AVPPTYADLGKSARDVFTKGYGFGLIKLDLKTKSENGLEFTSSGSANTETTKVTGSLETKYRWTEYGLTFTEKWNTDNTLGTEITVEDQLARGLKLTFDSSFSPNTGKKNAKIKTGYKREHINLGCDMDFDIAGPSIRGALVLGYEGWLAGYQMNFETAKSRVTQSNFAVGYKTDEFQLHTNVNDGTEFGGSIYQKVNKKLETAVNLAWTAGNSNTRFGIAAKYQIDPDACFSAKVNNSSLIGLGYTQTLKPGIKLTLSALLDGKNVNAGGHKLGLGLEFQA

Kd: 204 µM
SMILES: CN(C)C(=N)N=C(N)N [Metformin]
